Assay results taken from EP0799174B1, “BIOCIDAL ALCOHOLS, THEIR PRODUCTION AND THEIR USE” (SCHÜLKE & MAYR GMBH, priority 1994, dated 1996).

Columns and labels:
Ps. aeruginosa = experiment: Quantitative surface test according to DGHM, alcoholic surface disinfectant; assay type: cell-based; conditions: additive (0.05% for single substances) in ethanol 25.0 % / 1-propanol 35.0 % formulation, germs deposited after approx. 20 minutes
Source text: Standard formulation: • ethanol (MEK denatured) 25.0 % • 1-propanol 35.0 % • perfume 0.02 % • benzotriazole 0.001 % • Marlipal 013/70 0.1% (isotridecanpolyethyleneglycol-(7)-ether = C13 oxo alcohol + 7 mol ethylene oxide) • active ingredient additive x% • dem. water to 100 Test germ: Ps. aeruginosa Test method:
Quantitative surface test according to DGHM (Deutsche Gesellschaft für Hygiene and Microbiology = German Association for Hygiene and Microbiology). In order to exclude the effectiveness of the readily volatile alcohol components (ethanol, 1-propanol), the preparations were deposited onto the surfaces and the germs were deposited after approx. 20 minutes. Test surfaces: PVC and OP tiles Data as reduction factors (log stages)

[1] = test system: Germ mixture of Staphylococcus aureus, Staphylococcus epidermis, Escherichia coli, Klebsiella pneumoniae, Enterobacter gergoviae, Pseudomonas aeruginosa …; experiment: Preservative test: weekly loading of the sample with germ suspension; assay type: cell-based; conditions: aromatic alcohol 0.5% in sulfosuccinate 12.0% / betaine 3.0% formulation
Source text: Standard formulation: • sulfosuccinate 12.0% • betaine 3.0% • aromatic alcohol 0.5% • re-fatting agent • skin care additives • thickener • dem. water to 100 Test germs: Germ mixture of Staphylococcus aureus, Staphylococcus epidermis, Escherichia coli, Klebsiella pneumoniae, Enterobacter gergoviae, Pseudomonas aeruginosa, Pseudomonas fluorescens, Pseudomonas putida, Aspergillus niger, Penicillium funiculosum, Candida albicans; Total germ count 10^8-10^9/ml. Test method: weekly loading of the sample with germ suspension; smear onto CS and Sabouraud agar. See also K.-H. Diehl, P. Oltmanns, J. Ramsbotham, Seife, Öle, Fette, Wachse 118 (1992) 546.
Data expressed semi-qualitatively: • - no growth < 10^2 CFU/g (CFU = colony-forming units) • + slight growth approx. 10^3 CFU/g • ++ moderate growth approx. 10^4-10^5 CFU/g • +++ heavy growth > 10^5 CFU/g

[2] = Skin antiseptic a): suspension test according to DGHM; assay type: cell-based; conditions: formulation with 1.0% aromatic alcohol in 1-propanol 30.0%, 2-propanol 45.0%; concentration and time
resident skin flora = experiment: Skin antiseptic a): action against the resident skin flora; assay type: in vivo; conditions: formulation with 1.0% aromatic alcohol in 1-propanol 30.0%, 2-propanol 45.0%; concentration and time
[3] = test system: Candida albicans ATCC 10231; experiment: Skin antiseptic b): quantitative suspension test according to DGHM; assay type: cell-based; conditions: 1.0% 8, formulation 1-propanol 15.0%, 2-propanol 30.0%
Source text: (§1) • 1-propanol 15.0% • 2-propanol 30.0% • aromatic alcohol 1.0% • dem. water to 100 [table]

[4] = test system: Pseudomonas aeruginosa ATCC 15442; experiment: as above; assay type: cell-based; conditions: 1.0% 8, formulation 1-propanol 15.0%, 2-propanol 30.0%
Source text: as §1

[5] = test system: Staphylococcus aureus ATCC 6538; experiment: as above; assay type: cell-based; conditions: 1.0% 8, formulation 1-propanol 15.0%, 2-propanol 30.0%
Source text: as §1

In the case of `OCCCc1ccccc1` [Alcohol 1, 3-phenyl propanol, reference compound], the “reduction factors (log stages)” value (Ps. aeruginosa; PVC, 30') is reported as 0 log stages, the “reduction factors (log stages)” value (Ps. aeruginosa; PVC, 60') is reported as 0 log stages and the “reduction factors (log stages)” value (Ps. aeruginosa; PVC, 240') is reported as 0 log stages. For the same compound, the “reduction factors (log stages)” value (Ps. aeruginosa; Tiles, 30') was 0 log stages, the “reduction factors (log stages)” value (Ps. aeruginosa; Tiles, 60') was 0 log stages and the “reduction factors (log stages)” value (Ps. aeruginosa; Tiles, 240') was 0 log stages. For the same compound, the “growth, 1st week” value ([1]; 1st week) was “+ (slight growth approx. 10^3 CFU/g)”, the “growth, 2nd week” value ([1]; 2nd week) was “+ (slight growth approx. 10^3 CFU/g)” and the “growth, 3rd week” value ([1]; 3rd week) was “- (no growth < 10^2 CFU/g)”. For the same compound, the “growth, 4th week” value ([1]; 4th week) was “- (no growth < 10^2 CFU/g)” and the “growth, 5th week” value ([1]; 5th week) was “- (no growth < 10^2 CFU/g)”.
With `CCCCCC(=Cc1ccccc1)CO` [Alcohol 8, α-amyl cinnamyl alcohol] the “values in the suspension test according to DGHM” value [2] was 50%, 30 seconds, the “action against the resident skin flora” value (resident skin flora) was 100%, 15 seconds and the “reduction factors (log stages)” value ([3]; column 25, contact time 1') was 0.6 log stages. The “reduction factors (log stages)” value ([3]; column 25, contact time 2') was 1.1 log stages, the “reduction factors (log stages)” value ([3]; column 25, contact time 5') was 1.7 log stages and the “reduction factors (log stages)” value ([3]; column 25, contact time 30") was 0.5 log stages. The “reduction factors (log stages)” value ([3]; column 50, contact time 1') was 3.5 log stages, the “reduction factors (log stages)” value ([3]; column 50, contact time 2') was >4.9 log stages and the “reduction factors (log stages)” value ([3]; column 50, contact time 5') was >5.1 log stages. For the same compound, the “reduction factors (log stages)” value ([3]; column 50, contact time 30") was 2.7 log stages, the “reduction factors (log stages)” value ([3]; column 75, contact time 1') was >4.6 log stages and the “reduction factors (log stages)” value ([3]; column 75, contact time 2') was >4.9 log stages. The “reduction factors (log stages)” value ([3]; column 75, contact time 5') was >5.1 log stages, the “reduction factors (log stages)” value ([3]; column 75, contact time 30") was >4.6 log stages and the “reduction factors (log stages)” value ([4]; column 25, contact time 1') was 0 log stages. For the same compound, the “reduction factors (log stages)” value ([4]; column 25, contact time 2') was 0 log stages, the “reduction factors (log stages)” value ([4]; column 25, contact time 5') was 0 log stages and the “reduction factors (log stages)” value ([4]; column 25, contact time 30") was 0 log stages. The “reduction factors (log stages)” value ([4]; column 50, contact time 1') was >5.8 log stages, the “reduction factors (log stages)” value ([4]; column 50, contact time 2') was >5.7 log stages and the “reduction factors (log stages)” value ([4]; column 50, contact time 5') was >5.7 log stages. The “reduction factors (log stages)” value ([4]; column 50, contact time 30") was >5.6 log stages, the “reduction factors (log stages)” value ([4]; column 75, contact time 1') was >5.8 log stages and the “reduction factors (log stages)” value ([4]; column 75, contact time 2') was >5.7 log stages. For the same compound, the “reduction factors (log stages)” value ([4]; column 75, contact time 5') was >5.7 log stages, the “reduction factors (log stages)” value ([4]; column 75, contact time 30") was >5.6 log stages and the “reduction factors (log stages)” value ([5]; column 25, contact time 1') was 3.6 log stages. The “reduction factors (log stages)” value ([5]; column 25, contact time 2') was 4.7 log stages, the “reduction factors (log stages)” value ([5]; column 25, contact time 5') was >5.8 log stages and the “reduction factors (log stages)” value ([5]; column 25, contact time 30") was 2.8 log stages. The “reduction factors (log stages)” value ([5]; column 50, contact time 1') was >5.5 log stages, the “reduction factors (log stages)” value ([5]; column 50, contact time 2') was >5.9 log stages and the “reduction factors (log stages)” value ([5]; column 50, contact time 5') was >5.8 log stages. The “reduction factors (log stages)” value ([5]; column 50, contact time 30") was >5.6 log stages, the “reduction factors (log stages)” value ([5]; column 75, contact time 1') was >5.5 log stages and the “reduction factors (log stages)” value ([5]; column 75, contact time 2') was >5.9 log stages. The “reduction factors (log stages)” value ([5]; column 75, contact time 5') was >5.8 log stages and the “reduction factors (log stages)” value ([5]; column 75, contact time 30") was >5.6 log stages.
